Reference: patent US11786503B2, “Pharmaceutical compositions and methods for countering chemotherapy induced cardiotoxicity” (Auransa Inc., priority 2016, dated 2023)
Read-outs that look alike come from different tables or passages of the source.

Tests used:
[1] = tested on: Doxorubicin treated human iPSC-derived cardiomyocytes; test: iPSC-CM protection by myricetin analogs (Table 1); format: cell-based; details: for cardioprotection, in words: Table 1
TOPOIIα = molecular target: T1, TOPOIIα (Homo sapiens, UniProt P11388); test: kDNA decatenation assay, TOPOIIα; format: biochemical; details: for TOPOIIα inhibition, in words: decatenation assay;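 as to all read-outs here: kDNA incubated with one unit of TOPOIIα at 37 °C for 30 min, decatenated product resolved on 1% agarose gel, inhibition from relative band intensity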
T1 construct: purchased Inspiralis
T1 sequence (P11388 whole entry): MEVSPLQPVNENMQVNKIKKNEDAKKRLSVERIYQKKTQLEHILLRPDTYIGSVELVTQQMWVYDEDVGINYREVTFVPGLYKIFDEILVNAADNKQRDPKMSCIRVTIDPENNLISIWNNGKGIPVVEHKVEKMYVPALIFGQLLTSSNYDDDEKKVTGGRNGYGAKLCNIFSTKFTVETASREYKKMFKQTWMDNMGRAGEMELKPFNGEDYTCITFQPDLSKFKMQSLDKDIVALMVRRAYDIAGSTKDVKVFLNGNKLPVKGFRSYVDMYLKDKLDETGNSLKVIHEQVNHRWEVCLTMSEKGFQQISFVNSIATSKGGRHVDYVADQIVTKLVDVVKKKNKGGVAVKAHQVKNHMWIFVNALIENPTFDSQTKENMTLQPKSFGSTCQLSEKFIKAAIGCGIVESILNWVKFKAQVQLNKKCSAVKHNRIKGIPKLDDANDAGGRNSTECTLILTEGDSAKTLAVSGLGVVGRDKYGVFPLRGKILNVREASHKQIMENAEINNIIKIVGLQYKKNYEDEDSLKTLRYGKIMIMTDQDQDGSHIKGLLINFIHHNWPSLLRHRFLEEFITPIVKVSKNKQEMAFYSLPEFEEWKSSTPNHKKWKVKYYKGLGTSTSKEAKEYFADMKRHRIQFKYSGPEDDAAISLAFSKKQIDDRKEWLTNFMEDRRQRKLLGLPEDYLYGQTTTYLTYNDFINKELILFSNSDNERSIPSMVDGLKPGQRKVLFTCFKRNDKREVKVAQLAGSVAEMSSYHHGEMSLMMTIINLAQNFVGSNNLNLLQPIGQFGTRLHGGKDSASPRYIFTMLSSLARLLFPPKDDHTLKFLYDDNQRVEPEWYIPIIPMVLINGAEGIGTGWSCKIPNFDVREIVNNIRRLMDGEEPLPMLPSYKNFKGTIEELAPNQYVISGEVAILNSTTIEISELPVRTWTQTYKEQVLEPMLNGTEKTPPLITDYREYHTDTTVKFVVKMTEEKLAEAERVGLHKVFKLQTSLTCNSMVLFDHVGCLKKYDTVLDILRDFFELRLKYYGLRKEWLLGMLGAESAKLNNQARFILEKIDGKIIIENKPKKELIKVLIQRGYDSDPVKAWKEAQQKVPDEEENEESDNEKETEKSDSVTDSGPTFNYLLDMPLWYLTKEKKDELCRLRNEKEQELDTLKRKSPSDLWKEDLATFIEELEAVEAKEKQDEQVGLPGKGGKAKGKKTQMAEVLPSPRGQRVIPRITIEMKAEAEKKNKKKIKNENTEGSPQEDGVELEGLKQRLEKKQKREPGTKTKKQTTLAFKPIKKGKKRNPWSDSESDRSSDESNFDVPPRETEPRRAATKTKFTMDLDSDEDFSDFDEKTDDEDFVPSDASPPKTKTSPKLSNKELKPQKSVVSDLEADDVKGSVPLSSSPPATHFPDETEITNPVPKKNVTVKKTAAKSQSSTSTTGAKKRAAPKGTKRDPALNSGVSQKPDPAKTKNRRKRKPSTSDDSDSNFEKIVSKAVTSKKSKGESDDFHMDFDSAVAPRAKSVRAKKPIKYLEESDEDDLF

TOPOIIβ = molecular target: T2, TOPOIIβ (Homo sapiens, UniProt Q02880); test: kDNA decatenation assay, TOPOIIβ; format: biochemical; details: for TOPOIIβ inhibition, in words: decatenation assay;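 as to all read-outs here: kinetoplast DNA incubated with one unit of TOPOIIβ at 37 °C for 30 min, decatenated product resolved on 1% agarose gel, inhibition scored from relative band intensity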
T2 construct: purchased Inspiralis
T2 sequence (Q02880 whole entry): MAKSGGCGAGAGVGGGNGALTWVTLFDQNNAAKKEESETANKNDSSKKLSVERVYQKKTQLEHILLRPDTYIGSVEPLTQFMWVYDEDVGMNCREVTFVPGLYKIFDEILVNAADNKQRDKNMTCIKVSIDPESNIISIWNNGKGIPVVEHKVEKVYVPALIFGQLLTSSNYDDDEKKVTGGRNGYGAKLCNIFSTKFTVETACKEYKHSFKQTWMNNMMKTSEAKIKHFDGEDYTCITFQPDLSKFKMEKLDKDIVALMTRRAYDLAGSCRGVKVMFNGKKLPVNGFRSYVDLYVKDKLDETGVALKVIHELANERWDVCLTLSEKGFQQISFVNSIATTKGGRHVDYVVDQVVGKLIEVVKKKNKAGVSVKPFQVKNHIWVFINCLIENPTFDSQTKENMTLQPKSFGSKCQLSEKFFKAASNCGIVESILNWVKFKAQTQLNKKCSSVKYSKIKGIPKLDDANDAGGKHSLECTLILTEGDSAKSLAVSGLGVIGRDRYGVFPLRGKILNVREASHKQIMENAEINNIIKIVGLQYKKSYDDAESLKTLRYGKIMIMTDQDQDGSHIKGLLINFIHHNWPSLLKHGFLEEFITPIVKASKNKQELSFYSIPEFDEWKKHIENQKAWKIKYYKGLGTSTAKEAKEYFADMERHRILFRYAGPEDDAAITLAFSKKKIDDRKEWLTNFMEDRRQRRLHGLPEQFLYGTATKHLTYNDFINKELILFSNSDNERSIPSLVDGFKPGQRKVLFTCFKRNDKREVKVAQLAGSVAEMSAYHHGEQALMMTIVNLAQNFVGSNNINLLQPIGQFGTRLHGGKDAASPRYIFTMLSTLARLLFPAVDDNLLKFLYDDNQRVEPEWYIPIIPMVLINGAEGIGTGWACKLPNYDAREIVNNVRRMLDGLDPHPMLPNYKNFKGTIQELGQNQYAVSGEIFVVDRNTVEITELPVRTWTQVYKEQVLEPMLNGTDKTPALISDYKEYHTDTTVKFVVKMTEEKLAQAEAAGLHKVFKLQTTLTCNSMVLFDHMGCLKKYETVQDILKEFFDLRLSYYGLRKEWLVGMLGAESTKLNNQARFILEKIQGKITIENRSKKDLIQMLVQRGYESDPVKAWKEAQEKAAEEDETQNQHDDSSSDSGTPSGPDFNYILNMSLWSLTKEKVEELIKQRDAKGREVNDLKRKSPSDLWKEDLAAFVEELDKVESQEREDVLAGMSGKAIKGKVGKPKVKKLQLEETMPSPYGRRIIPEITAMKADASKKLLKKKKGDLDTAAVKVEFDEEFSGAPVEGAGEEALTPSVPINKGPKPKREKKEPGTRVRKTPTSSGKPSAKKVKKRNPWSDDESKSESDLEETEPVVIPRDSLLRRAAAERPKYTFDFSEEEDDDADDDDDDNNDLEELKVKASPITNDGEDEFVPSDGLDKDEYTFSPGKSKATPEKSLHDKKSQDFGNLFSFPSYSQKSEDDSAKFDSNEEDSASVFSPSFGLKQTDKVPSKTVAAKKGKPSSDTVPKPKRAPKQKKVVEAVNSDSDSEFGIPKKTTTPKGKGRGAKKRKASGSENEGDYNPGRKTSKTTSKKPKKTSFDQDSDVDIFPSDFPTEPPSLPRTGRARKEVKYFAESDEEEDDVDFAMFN

cardiomyocytes = test: cytotoxicity of myricetin analogs to cardiomyocytes (Table 1, Toxicity); details: for cytotoxicity, in words: at 100 μM where stated; for cytotoxicity, in words / toxic effects at concentrations less than 100 μM: Table 1; for Toxicity: * = cytotoxicity at 100 μM
[2] = tested on: cardiomyocytes differentiated from induced pluripotent stem cells; test: acute toxicity on electrophysiology, MEA beat period and field potential duration (Example 23); format: cell-based; details: at least 20 minutes; for acute drug toxicity on beating: higher concentrations; for difference in beat period or field potential duration vs control samples: lower drug concentration
Procedure: Samples were either mock-treated with 0.1% DMSO, or treated with increasing concentrations of the indicated drug for at least 20 minutes. Cardiomyocytes were treated with the hERG potassium channel blocker E4031 as a control. Following treatment, the beat period and field potential duration (FPD) were measured in each sample using the MEA.

[3] = approximate, read-out: EC50 for cardioprotection
[4] = Homo sapiens, iPSC-CM, read-out: iPSC-CM protection EC50
[5] = Homo sapiens, iPSC-CM, read-out: iPSC-CM protection Max Effect (%)
[6] = Homo sapiens, iPSC-CM, initial screen at 10 μM or 100 μM, read-out: iPSC-CM protection Max Effect (%), class symbol
[7] = read-out: iPSC-CM protection EC50
[8] = initial screen at 10 μM or 100 μM

TOPIIα Inhibition (TOPOIIα)	TOPIIβ Inhibition (TOPOIIβ)	Compound	cardioprotection, in words [1]	TOPOIIα inhibition, in words (TOPOIIα)	TOPOIIβ inhibition, in words (TOPOIIβ)	EC50 [1, 4] [µM]	Emax [1, 5] [%]	Rescue [1]	also measured
		O=c1c(O)c(-c2ccccc2)oc2cc(O)cc(O)c12 [3,5,7-trihydroxyflavone]	neither cardioprotection nor TOPOII inhibition	neither cardioprotection nor TOPOII inhibition	neither cardioprotection nor TOPOII inhibition				cytotoxicity, in words (cardiomyocytes): generalized cytotoxicity
		COc1cc(-c2oc3cc(O)cc(O)c3c(=O)c2O)cc(OC)c1O [3′,5′-O-dimethylmyricetin]	neither cardioprotection nor TOPOIIα and TOPOIIβ inhibition	neither cardioprotection nor TOPOIIα and TOPOIIβ inhibition	neither cardioprotection nor TOPOIIα and TOPOIIβ inhibition				
		COc1cc(-c2oc3cc(O)cc(O)c3c(=O)c2O)cc(O)c1O [3′-O-methylmyricetin]	conferred cardioprotection	failed to inhibit	failed to inhibit				EC50 [1, 3]: ~59 µM
		COc1c(O)cc(-c2oc3cc(O)cc(O)c3c(=O)c2O)cc1O [4′-O-methylmyricetin]	conferred cardioprotection	without TOPOII inhibition	without TOPOII inhibition				EC50 [1, 3]: ~48.7 µM
		COc1ccc2c(=O)c(O)c(-c3cc(OC)c(OC)c(OC)c3)oc2c1 [7,3′,4′,5′-O-tetramethylrobinetin]	entirely failed to display cardioprotection or TOPOII inhibition	entirely failed to display cardioprotection or TOPOII inhibition	entirely failed to display cardioprotection or TOPOII inhibition				
		O=c1c(O)c(-c2cc(O)c(O)c(O)c2)oc2cc(O)ccc12 [Compound 2, 3,7,3′,4′,5′-pentahydroxyflavone]		high level of inhibition	high level of inhibition	12.6	64		EC50 ([1]; Homo sapiens, Cardiomyocyte, approximate, read-out: EC50 for cardioprotection): 10 to 20 µM; Toxicity (cardiomyocytes): −
		O=c1cc(-c2cc(O)c(O)c(O)c2)oc2cc(O)cc(O)c12 [Compound 3, 5,7,3′,4′,5′-pentahydroxyflavone]	displayed cardioprotection	displayed cardioprotection and TOPOII inhibition	displayed cardioprotection and TOPOII inhibition	17.2	56		toxic effects at concentrations less than 100 μM (cardiomyocytes): some toxic effects; cytotoxicity, in words (cardiomyocytes): low level of cytotoxicity
		O=c1c(O)c(-c2ccc(O)c(O)c2)oc2cc(O)cc(O)c12 [Compound 4, 3,5,7,3′,4′-pentahydroxyflavone]	conferred cardioprotection	exhibited TOPOII inhibition	exhibited TOPOII inhibition	20.5	58		cytotoxicity, in words (cardiomyocytes): high level of general cytoxicity
−	−	O=c1cc(-c2cc(O)c(O)c(O)c2)oc2cc(O)ccc12 [Compound 6, 7,3′4′,5′-tetrahydroxyflavone]	displayed cardioprotection	did not inhibit TOPOII enzymes	did not inhibit TOPOII enzymes	17.1	71		Toxicity (cardiomyocytes): −
		O=c1ccoc2cc(O)ccc12 [Compound 7-hydroxy-4-chromone, 7-hydroxy-4-chromone]	no positive effect	Nor did either compound confer TOPOIIβ or a inhibition	Nor did either compound confer TOPOIIβ or a inhibition				cytotoxicity, in words (cardiomyocytes): high level of cytotoxicity
−	−	O=c1cc(-c2cc(O)c(O)c(O)c2)oc2ccccc12 [Compound 8, 3′,4′,5′-trihydroxyflavone]				43	64	+	Toxicity (cardiomyocytes): −
−	−	O=c1cc(-c2ccc(O)c(O)c2)oc2cc(O)cc(O)c12 [Compound 9, 5,7,3′,4′-tetrahydroxyflavone]				9.67	62		
−	−	O=c1c(O)c(-c2ccc(O)cc2)oc2cc(O)ccc12 [Compound 10, 3,7,4′-trihydroxyflavone]				3.26	27	+	toxic effects at concentrations less than 100 μM (cardiomyocytes): exhibited toxic effects
−	−	O=c1cc(-c2ccc(O)c(O)c2)oc2cc(O)ccc12 [Compound 11, 7,3′,4′-trihydroxyflavone]				6.25	24	+	
−	−	O=c1c(O)c(-c2ccc(O)c(O)c2)oc2ccccc12 [Compound 12, 3,3′,4′-trihydroxyflavone]				6.43	16	+	
		O=c1ccoc2ccccc12 [Compound 29, chromone]						−	Emax [1, 6]: < 30%; Toxicity (cardiomyocytes): −
−	−	COc1cc(-c2oc3cc(O)cc(O)c3c(=O)c2O)cc(O)c1O [Compound 31, 3′-O-methylmyricetin]						+	iPSC-CM protection Max Effect (%) [1]: 76%; EC50 [1, 7]: 58.7 µM
−	−	COc1c(O)cc(-c2oc3cc(O)cc(O)c3c(=O)c2O)cc1O [Compound 32, 4′-O-methylmyricetin]						+	iPSC-CM protection Max Effect (%) [1]: 68%; EC50 [1, 7]: 48.6 µM
−	−	COc1cc(-c2oc3cc(O)cc(O)c3c(=O)c2O)cc(OC)c1O [Compound 33, 3′,5′-O-dimethylmyricetin]						−	iPSC-CM protection Max Effect (%), class symbol [1, 8]: † (Compounds failed to exhibit >30% protection Max Effect at 10 μM or 100 μM on initial screen.)
−	−	COc1cc(-c2oc3cc(O)cc(O)c3c(=O)c2O)cc(OC)c1OC [Compound 34, 3′,4′,5′-O-trimethylmyricetin]						−	iPSC-CM protection Max Effect (%), class symbol [1, 8]: † (Compounds failed to exhibit >30% protection Max Effect at 10 μM or 100 μM on initial screen.)
−	−	COc1cc(-c2oc3cc(O)ccc3c(=O)c2O)cc(OC)c1OC [Compound 35, 3',4',5'-O-trimethylrobinetin]	entirely failed to display cardioprotection or TOPOII inhibition	entirely failed to display cardioprotection or TOPOII inhibition	entirely failed to display cardioprotection or TOPOII inhibition			−	iPSC-CM protection Max Effect (%), class symbol [1, 8]: † (Compounds failed to exhibit >30% protection Max Effect at 10 μM or 100 μM on initial screen.)
−	−	COc1ccc2c(=O)c(O)c(-c3cc(OC)c(OC)c(OC)c3)oc2c1 [Compound 36, 7,3′,4′,5′-O-tetramethylrobinetin]						−	iPSC-CM protection Max Effect (%), class symbol [1, 8]: † (Compounds failed to exhibit >30% protection Max Effect at 10 μM or 100 μM on initial screen.)
−	−	COc1ccc2c(=O)c(OC)c(-c3cc(OC)c(OC)c(OC)c3)oc2c1 [Compound 37, 3,7,3′,4′,5′-O-pentamethylrobinetin]						−	iPSC-CM protection Max Effect (%), class symbol [1, 8]: † (Compounds failed to exhibit >30% protection Max Effect at 10 μM or 100 μM on initial screen.)
−	−	O=c1ccoc2cc(O)ccc12 [Compound 38, 7-hydroxy-4-chromone]						−	Emax [1, 6]: < 30%
		C[C@H](CCC(=O)O)[C@H]1CC[C@H]2[C@@H]3[C@H](O)C[C@@H]4C[C@H](O)CC[C@]4(C)[C@H]3CC[C@]12C [chenodeoxycholic acid]							acute drug toxicity on beating [2]: beating cessation; difference in beat period or field potential duration vs control samples [2]: no appreciable difference
		O=c1ccoc2ccccc12 [chromone]	no positive effect	Nor did either compound confer TOPOIIβ or a inhibition	Nor did either compound confer TOPOIIβ or a inhibition				
		CC(=O)N(O)CCCCCNC(=O)CCC(=O)N(O)CCCCCNC(=O)CCC(=O)N(O)CCCCCN [deferoxamine]							difference in beat period or field potential duration vs control samples [2]: no appreciable difference
		O=C1C[C@@H](c2ccc(O)cc2)Oc2cc(O)cc(O)c21 [naringenin]							acute drug toxicity on beating [2]: beating cessation; difference in beat period or field potential duration vs control samples [2]: no appreciable difference
